Assay results as given in ChEMBL document CHEMBL1128790, “Putative atypical antipsychotics with mixed dopaminergic (D1, D2) and serotonergic (5HT2) activity: The design evolution of ZD3638” (1995).
Calls of active or inactive are those of the source. The rule behind the calls is not given here.

How the values were obtained:
[1] = (§1) Compound was tested for functional dopamine antagonism in normalization assay (i.e. AS: reversal of apomorphine induced swimming ED50s in mg/kg orally); settings: po
[2] = biological target: D(2) dopamine receptor (Homo sapiens) (UniProt P14416); assay: Compound was tested for dopamine D2 (spiroperidol) receptor binding affinity, at 5000 nM concentration
Sequence of D(2) dopamine receptor (Homo sapiens) (P14416 whole entry): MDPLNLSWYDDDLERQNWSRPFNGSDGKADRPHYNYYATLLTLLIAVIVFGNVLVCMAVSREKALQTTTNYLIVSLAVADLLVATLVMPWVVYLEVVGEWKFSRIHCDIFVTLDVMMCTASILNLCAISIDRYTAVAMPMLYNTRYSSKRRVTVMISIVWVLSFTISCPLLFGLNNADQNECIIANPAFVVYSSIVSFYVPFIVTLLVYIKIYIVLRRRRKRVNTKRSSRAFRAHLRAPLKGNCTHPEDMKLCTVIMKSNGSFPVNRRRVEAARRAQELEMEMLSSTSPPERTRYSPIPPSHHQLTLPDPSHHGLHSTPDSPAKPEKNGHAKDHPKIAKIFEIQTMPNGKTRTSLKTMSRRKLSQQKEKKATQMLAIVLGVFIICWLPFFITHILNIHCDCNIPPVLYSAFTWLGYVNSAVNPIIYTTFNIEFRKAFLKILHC

[3] = biological target: Serotonin 2 (5-HT2) receptor (Homo sapiens) (UniProt P41595+P28223+P28335)
Sequence of Serotonin 2 (5-HT2) receptor (Homo sapiens) (P28223 whole entry, looked up): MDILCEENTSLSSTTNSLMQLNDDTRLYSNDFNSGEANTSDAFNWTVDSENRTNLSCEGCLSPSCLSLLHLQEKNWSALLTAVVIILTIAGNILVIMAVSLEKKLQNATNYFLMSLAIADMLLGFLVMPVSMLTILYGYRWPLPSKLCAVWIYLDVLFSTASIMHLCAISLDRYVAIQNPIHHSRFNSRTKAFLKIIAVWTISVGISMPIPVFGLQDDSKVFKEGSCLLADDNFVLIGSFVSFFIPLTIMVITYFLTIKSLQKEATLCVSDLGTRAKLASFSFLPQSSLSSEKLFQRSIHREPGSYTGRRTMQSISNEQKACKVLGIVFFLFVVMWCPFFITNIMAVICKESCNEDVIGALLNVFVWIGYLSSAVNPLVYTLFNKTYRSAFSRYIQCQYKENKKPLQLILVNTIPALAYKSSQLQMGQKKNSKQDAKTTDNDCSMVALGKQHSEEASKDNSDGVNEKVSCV
Sequence of Serotonin 2 (5-HT2) receptor (Homo sapiens) (P28335 whole entry, looked up): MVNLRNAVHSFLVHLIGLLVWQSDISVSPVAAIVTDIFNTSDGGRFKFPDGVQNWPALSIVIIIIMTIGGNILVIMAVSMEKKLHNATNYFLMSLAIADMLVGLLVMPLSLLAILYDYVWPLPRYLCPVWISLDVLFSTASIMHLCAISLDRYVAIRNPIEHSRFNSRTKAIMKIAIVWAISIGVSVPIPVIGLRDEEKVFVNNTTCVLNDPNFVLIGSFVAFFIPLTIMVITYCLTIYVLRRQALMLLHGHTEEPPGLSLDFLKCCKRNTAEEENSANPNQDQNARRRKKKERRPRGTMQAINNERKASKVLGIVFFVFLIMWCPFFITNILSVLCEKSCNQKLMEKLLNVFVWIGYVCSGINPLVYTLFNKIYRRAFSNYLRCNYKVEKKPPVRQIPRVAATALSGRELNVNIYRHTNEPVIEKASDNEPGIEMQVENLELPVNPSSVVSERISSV
Sequence of Serotonin 2 (5-HT2) receptor (Homo sapiens) (P41595 whole entry, looked up): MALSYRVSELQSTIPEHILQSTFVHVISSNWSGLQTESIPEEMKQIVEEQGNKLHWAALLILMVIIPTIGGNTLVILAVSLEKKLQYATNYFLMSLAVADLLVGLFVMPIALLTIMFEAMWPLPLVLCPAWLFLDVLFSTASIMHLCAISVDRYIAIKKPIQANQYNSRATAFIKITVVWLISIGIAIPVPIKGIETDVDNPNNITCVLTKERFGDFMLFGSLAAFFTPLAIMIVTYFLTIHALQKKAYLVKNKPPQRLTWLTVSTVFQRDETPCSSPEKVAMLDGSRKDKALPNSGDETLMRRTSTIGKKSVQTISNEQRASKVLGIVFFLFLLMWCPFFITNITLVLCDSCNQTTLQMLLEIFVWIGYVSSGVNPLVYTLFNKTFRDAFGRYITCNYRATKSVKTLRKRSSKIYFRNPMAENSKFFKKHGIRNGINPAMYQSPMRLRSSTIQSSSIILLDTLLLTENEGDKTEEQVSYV
Description: 5-hydroxytryptamine 2 receptor binding affinity

[4] = biological target: D(1A) dopamine receptor (Homo sapiens) (UniProt P21728)
Sequence of D(1A) dopamine receptor (Homo sapiens) (P21728 whole entry): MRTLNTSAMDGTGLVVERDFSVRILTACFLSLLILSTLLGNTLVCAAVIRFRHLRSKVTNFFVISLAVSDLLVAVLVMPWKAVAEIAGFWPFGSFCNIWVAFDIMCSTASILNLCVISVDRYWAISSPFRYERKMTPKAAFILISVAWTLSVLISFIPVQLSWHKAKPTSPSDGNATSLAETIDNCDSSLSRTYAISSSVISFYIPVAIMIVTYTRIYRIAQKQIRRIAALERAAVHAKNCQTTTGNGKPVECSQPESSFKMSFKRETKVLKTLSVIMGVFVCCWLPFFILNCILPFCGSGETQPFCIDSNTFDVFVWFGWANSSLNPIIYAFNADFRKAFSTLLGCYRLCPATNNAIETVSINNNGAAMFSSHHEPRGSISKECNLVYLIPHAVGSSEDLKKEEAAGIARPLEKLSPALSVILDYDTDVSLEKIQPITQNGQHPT
Description: Dopamine D1 (SCH-23390) receptor binding affinity

[5] = biological target: D(2) dopamine receptor (Homo sapiens) (UniProt P14416); assay: Dopamine D2 (spiroperidol) receptor binding affinity
[6] = biological target: D(1A) dopamine receptor (Homo sapiens) (UniProt P21728); assay: Compound was tested for dopamine D1 (SCH-23390) receptor binding affinity, at 2500 nM concentration
[7] = biological target: D(2) dopamine receptor (Homo sapiens) (UniProt P14416); assay: Compound was tested for dopamine D2 (spiroperidol) receptor binding affinity at 2500 nM concentration
Rattus norvegicus = assay: as §1; settings: po
[8] = biological target: D(1A) dopamine receptor (Homo sapiens) (UniProt P21728); assay: Compound was tested for dopamine D1 (SCH-23390) receptor binding affinity, at 1000 nM concentration
[9] = biological target: D(2) dopamine receptor (Homo sapiens) (UniProt P14416); assay: Compound was tested for dopamine D2 (spiroperidol) receptor binding affinity; Not active
[10] = biological target: D(1A) dopamine receptor (Homo sapiens) (UniProt P21728); assay: Compound was tested for dopamine D1 (SCH-23390) receptor binding affinity; Not active

Structure (SMILES) | ED50 [1] | Binding affinity [3] | Binding affinity [4] | Binding affinity [5] | other results
CN1CCN(C(=O)C23CC(c4ccccc42)c2ccccc23)CC1 | > 80 mg/kg |  |  |  | inhibition [2]: 0%
CC(C)(C)C1(O)CCN(CC23CC(c4ccccc42)c2ccc(Cl)cc23)CC1 (centres undefined) | 0.6 mg/kg | 1 nM | 7 nM | 5 nM | 
c1ccc2c(c1)C1CC2(CNCCCN2CCOCC2)c2ccccc21 | > 80 mg/kg | 21 nM | 349 nM | 222 nM | 
c1cnc(NCCCNCC23CC(c4ccccc42)c2ccccc23)nc1 | > 80 mg/kg | 227 nM | 132 nM | 265 nM | 
Clc1ccc2c(c1)C1(CN3CCC(Nc4ncccn4)CC3)CC2c2ccccc21 (centres undefined) | 5 mg/kg | 2 nM | 351 nM | 49 nM | 
CN1CCN(CC23CC(c4ccccc42)c2ccccc23)CC1 | > 80 mg/kg | 314 nM |  |  | inhibition [6]: 14%; inhibition [7]: 18%
O[C@@H](c1cccnc1)C1CCN(CC23CC(c4ccccc42)c2ccc(Cl)cc23)CC1 (some centres undefined) | 5 mg/kg | 4 nM | 63 nM | 14 nM | 
CC[S+]([O-])c1ncccc1C1(O)CCN(CC23CC(c4ccccc42)c2ccccc23)CC1 (centres undefined) | 0.6 mg/kg | 39 nM | 13 nM | 42 nM | 
CCOC(OCC)C(=O)NC1CCN(CC23CC(c4ccccc42)c2ccc(Cl)cc23)CC1 (centres undefined) | 2.5 mg/kg | 40 nM | 76 nM | 25 nM | 
CN1CCN(C2=Nc3cc(Cl)ccc3Nc3ccccc32)CC1 [CLOZAPINE] |  |  |  |  | ED50 (Rattus norvegicus): 40 mg/kg
c1ccc2c(c1)C1CC2(CN2CCC(N3CCOCC3)CC2)c2ccccc21 | 10 mg/kg |  |  | 57 nM | inhibition [8]: 17%
NCC12CC(c3ccccc31)c1ccccc12 | > 80 mg/kg |  |  |  | Binding affinity [9]: inactive; Binding affinity [10]: inactive
C[C@@H]1CN(CCCNCC23CC(c4ccccc42)c2ccccc23)C[C@@H](C)O1 | > 80 mg/kg | 11 nM | 60 nM | 36 nM | 
c1ccc(Cn2cncc2CCNCC23CC(c4ccccc42)c2ccccc23)cc1 | 80 mg/kg | 84 nM | 610 nM | 101 nM | 
